ChEMBL document CHEMBL1671687, “Enhancement of biofilm formation by subinhibitory concentrations of macrolides in icaADBC-positive and -negative clinical isolates of Staphylococcus epidermidis” (2010)
Active and inactive are the calls of the source. The rule behind the calls is not given here.

Legend:
[1] = tested on: Staphylococcus epidermidis; assay: Antimicrobial activity against Staphylococcus epidermidis SW029 expressing icaA gene; assay type: functional
[2] = tested on: Staphylococcus epidermidis; assay: Antimicrobial activity against Staphylococcus epidermidis lacking compound-induced biofilms assessed as biofilm formation at 1/4 X MIC relative to untreated control; assay type: functional
[3] = tested on: Staphylococcus epidermidis; assay: Antimicrobial activity against Staphylococcus epidermidis lacking compound-induced biofilms; assay type: functional
[4] = tested on: Staphylococcus epidermidis; assay: Effect on polysaccharide secretion in Staphylococcus epidermidis SW029 expressing icaA gene at 12 hrs by SEM; assay type: functional, organism-based
[5] = tested on: Staphylococcus epidermidis; assay: Upregulation of sarA gene expression in Staphylococcus epidermidis SW029 at 8 ug/ml after 24 hrs by RT-PCR relative to untreated control; assay type: functional
[6] = tested on: Staphylococcus epidermidis; assay: Upregulation of sarA gene expression in Staphylococcus epidermidis SW029 at 8 ug/ml after 6 hrs by RT-PCR relative to untreated control; assay type: functional
[7] = tested on: Staphylococcus epidermidis; assay: Upregulation of icaA gene expression in Staphylococcus epidermidis SW029 at 8 ug/ml after 6 hrs by RT-PCR relative to untreated control; assay type: functional
[8] = tested on: Staphylococcus epidermidis; assay: Enhancement of biofilm formation Staphylococcus epidermidis SW098 expressing icaA gene at 1/4 X MIC by microtiter plate assay; assay type: functional
[9] = tested on: Staphylococcus epidermidis; assay: Enhancement of biofilm formation Staphylococcus epidermidis SW029 expressing icaA gene at 1/4 X MIC by microtiter plate assay; assay type: functional
[10] = tested on: Staphylococcus epidermidis; assay: Upregulation of icaA gene expression in Staphylococcus epidermidis SW029 at 8 ug/ml after 24 hrs by RT-PCR relative to untreated control; assay type: functional
[11] = tested on: Staphylococcus epidermidis; assay: Enhancement of biofilm formation Staphylococcus epidermidis SW067 expressing icaA gene at 1/4 X MIC by microtiter plate assay; assay type: functional
[12] = tested on: Staphylococcus epidermidis; assay: Enhancement of biofilm formation Staphylococcus epidermidis SW085 expressing icaA gene at 1/4 X MIC by microtiter plate assay; assay type: functional
[13] = tested on: Staphylococcus epidermidis; assay: Enhancement of biofilm formation Staphylococcus epidermidis SW115 at 1/4 X MIC by microtiter plate assay; assay type: functional
[14] = tested on: Staphylococcus epidermidis; assay: Upregulation of pyrR gene expression in Staphylococcus epidermidis SW029 at 8 ug/ml after 6 hrs by RT-PCR relative to untreated control; assay type: functional
[15] = tested on: Staphylococcus epidermidis; assay: Enhancement of biofilm formation Staphylococcus epidermidis SW021 at 1/4 X MIC by microtiter plate assay; assay type: functional
[16] = tested on: Staphylococcus epidermidis; assay: Downregulation of sigB gene expression in Staphylococcus epidermidis SW029 at 8 ug/ml after 24 hrs by RT-PCR relative to untreated control; assay type: functional
[17] = tested on: Staphylococcus epidermidis; assay: Antimicrobial activity against Staphylococcus epidermidis SW036 at 1/1024 X MIC; assay type: functional, organism-based
[18] = tested on: Staphylococcus epidermidis; assay: Upregulation of fruA gene expression in Staphylococcus epidermidis SW029 at 8 ug/ml after 6 hrs by RT-PCR relative to untreated control; assay type: functional
[19] = tested on: Staphylococcus epidermidis; assay: Antimicrobial activity against Staphylococcus epidermidis SW036 assessed as enhancement of biofilm formation after 18 hrs by microtiter plate assay; assay type: functional
[20] = tested on: Staphylococcus epidermidis; assay: Enhancement of biofilm formation Staphylococcus epidermidis SW071 at 1/4 X MIC by microtiter plate assay; assay type: functional
[21] = tested on: Staphylococcus epidermidis; assay: Enhancement of biofilm formation Staphylococcus epidermidis SW045 expressing icaA gene at 1/4 X MIC by microtiter plate assay; assay type: functional
[22] = tested on: Staphylococcus epidermidis; assay: Enhancement of biofilm formation Staphylococcus epidermidis SW126 expressing icaA gene at 1/4 X MIC by microtiter plate assay; assay type: functional
[23] = tested on: Staphylococcus epidermidis; assay: Enhancement of biofilm formation Staphylococcus epidermidis SW070 at 1/4 X MIC by microtiter plate assay; assay type: functional
[24] = tested on: Staphylococcus epidermidis; assay: Upregulation of sigB gene expression in Staphylococcus epidermidis SW029 at 8 ug/ml after 6 hrs by RT-PCR relative to untreated control; assay type: functional
[25] = tested on: Staphylococcus epidermidis; assay: Enhancement of biofilm formation Staphylococcus epidermidis SW088 at 1/4 X MIC by microtiter plate assay; assay type: functional
[26] = tested on: Staphylococcus epidermidis; assay: Enhancement of biofilm formation Staphylococcus epidermidis SW027 expressing icaA gene at 1/4 X MIC by microtiter plate assay; assay type: functional
[27] = tested on: Staphylococcus epidermidis; assay: Upregulation of pyrR gene expression in Staphylococcus epidermidis SW036 at 8 ug/ml after 6 hrs by RT-PCR relative to untreated control; assay type: functional
[28] = tested on: Staphylococcus epidermidis; assay: Upregulation of fruA gene expression in Staphylococcus epidermidis SW036 at 8 ug/ml after 6 hrs by RT-PCR relative to untreated control; assay type: functional
[29] = tested on: Staphylococcus epidermidis; assay: Enhancement of biofilm formation Staphylococcus epidermidis SW032 expressing icaA gene at 1/4 X MIC by microtiter plate assay; assay type: functional
[30] = tested on: Staphylococcus epidermidis; assay: Antimicrobial activity against compound pretreated Staphylococcus epidermidis assessed as biofilm formation at 1/4 X MIC relative to untreated control; assay type: functional
[31] = tested on: Staphylococcus epidermidis; assay: Upregulation of atlE gene expression in Staphylococcus epidermidis SW029 at 8 ug/ml after 6 hrs by RT-PCR relative to untreated control; assay type: functional
[32] = tested on: Staphylococcus epidermidis; assay: Upregulation of sigB gene expression in Staphylococcus epidermidis SW036 at 8 ug/ml after 6 hrs by RT-PCR relative to untreated control; assay type: functional
[33] = tested on: Staphylococcus epidermidis; assay: Antimicrobial activity against Staphylococcus epidermidis SW036; assay type: functional
[34] = tested on: Staphylococcus epidermidis; assay: Antimicrobial activity against Staphylococcus epidermidis SW029 expressing icaA gene assessed as increased biofilm formation at 6 to 12 hrs by CLSM; assay type: functional, organism-based
[35] = tested on: Staphylococcus epidermidis; assay: Upregulation of atlE gene expression in Staphylococcus epidermidis SW029 at 8 ug/ml after 24 hrs by RT-PCR relative to untreated control; assay type: functional
[36] = tested on: Staphylococcus epidermidis; assay: Enhancement of biofilm formation Staphylococcus epidermidis SW058 expressing icaA gene at 1/4 X MIC by microtiter plate assay; assay type: functional
[37] = tested on: Staphylococcus epidermidis; assay: Antimicrobial activity against Staphylococcus epidermidis SW029 expressing icaA gene assessed as enhancement of biofilm formation after 18 hrs by microtiter plate assay; assay type: functional
[38] = tested on: Staphylococcus epidermidis; assay: Upregulation of atlE gene expression in Staphylococcus epidermidis SW036 at 8 ug/ml after 6 hrs by RT-PCR relative to untreated control; assay type: functional
[39] = tested on: Staphylococcus epidermidis; assay: Enhancement of biofilm formation Staphylococcus epidermidis SW015 at 1/4 X MIC by microtiter plate assay; assay type: functional
[40] = tested on: Staphylococcus epidermidis; assay: Antimicrobial activity against compound pretreated Staphylococcus epidermidis biofilms; assay type: functional
[41] = tested on: Staphylococcus epidermidis; assay: Enhancement of biofilm formation Staphylococcus epidermidis SW104 expressing icaA gene at 1/4 X MIC by microtiter plate assay; assay type: functional
[42] = tested on: Staphylococcus epidermidis; assay: Enhancement of biofilm formation Staphylococcus epidermidis SW099 at 1/4 X MIC by microtiter plate assay; assay type: functional
[43] = tested on: Staphylococcus epidermidis; assay: Enhancement of biofilm formation Staphylococcus epidermidis SW082 at 1/4 X MIC by microtiter plate assay; assay type: functional
[44] = tested on: Staphylococcus epidermidis; assay: Upregulation of sarA gene expression in Staphylococcus epidermidis SW036 at 8 ug/ml after 6 hrs by RT-PCR relative to untreated control; assay type: functional
[45] = tested on: Staphylococcus epidermidis; assay: Enhancement of biofilm formation Staphylococcus epidermidis ATCC 35984 expressing icaA gene at 1/4 X MIC by microtiter plate assay; assay type: functional
[46] = tested on: Staphylococcus epidermidis; assay: Enhancement of biofilm formation Staphylococcus epidermidis SW036 at 1/4 X MIC by microtiter plate assay; assay type: functional
[47] = tested on: Staphylococcus epidermidis; assay: Antimicrobial activity against Staphylococcus epidermidis SW029 expressing icaA gene assessed as formation of multilayer biofilms at 48 hrs by SEM; assay type: functional, organism-based
[48] = tested on: Staphylococcus epidermidis; assay: Enhancement of biofilm formation Staphylococcus epidermidis SW061 expressing icaA gene at 1/4 X MIC by microtiter plate assay; assay type: functional
[49] = tested on: Staphylococcus epidermidis; assay: Enhancement of biofilm formation Staphylococcus epidermidis SW120 at 1/4 X MIC by microtiter plate assay; assay type: functional

Compound: CC[C@H]1OC(=O)[C@H](C)[C@@H](O[C@H]2C[C@@](C)(OC)[C@@H](O)[C@H](C)O2)[C@H](C)[C@@H](O[C@@H]2O[C@H](C)C[C@H](N(C)C)[C@H]2O)[C@](C)(O)C[C@@H](C)C(=O)[C@H](C)[C@@H](O)[C@]1(C)O [ERYTHROMYCIN]
- MIC [1]: > 128 µg/mL
- Ratio [2]: 1.02
- MIC [3]: ≥ 16 µg/mL
- Activity [4]: inactive
- fold change (FC) [5]: 6.9
- fold change (FC) [6]: 1.7
- fold change (FC) [7]: 1.2
- Activity [8]: 93.9%
- Activity [9]: 159.6%
- fold change (FC) [10]: 2.8
- Activity [11]: 150.3%
- Activity [12]: 297.8%
- Activity [13]: 166.8%
- fold change (FC) [14]: 3.7
- Activity [15]: 34.7%
- fold change (FC) [16]: 0.6
- Activity [17]: Active
- fold change (FC) [18]: 4.5
- Activity [19]: 100%
- Activity [20]: 230.4%
- Activity [21]: 47.2%
- Activity [22]: 56.1%
- Activity [23]: 172.2%
- fold change (FC) [24]: 2
- Activity [25]: 163.1%
- Activity [26]: 60.4%
- fold change (FC) [27]: 2.4
- fold change (FC) [28]: 2.4
- Activity [29]: 78.5%
- Ratio [30]: 2.51
- fold change (FC) [31]: 6.2
- fold change (FC) [32]: 1.4
- MIC [33]: > 128 µg/mL
- Activity [34]: inactive
- fold change (FC) [35]: 2.4
- Activity [36]: 37.9%
- Activity [37]: 173%
- fold change (FC) [38]: 1.8
- Activity [39]: 87.8%
- MIC [40]: ≥ 32 µg/mL
- Activity [41]: 63.2%
- Activity [42]: 55.7%
- Activity [43]: 58.7%
- fold change (FC) [44]: 1.7
- Activity [45]: 7%
- Activity [46]: 284.3%
- Activity [47]: inactive
- Activity [48]: 50.8%
- Activity [49]: 69.4%
